# Reference: patent US20240246946A1, “MODULATORS OF TREX1” (Constellation Pharmaceuticals, Inc., priority 2021, published 2024)
# Tests used:
# [1] = biological target: T1, full length human TREX1 (Homo sapiens, UniProt Q9NSU2); experiment: hTREX1 Biochemical Assay (fluorescence, dsDNA substrate degradation); conditions: biochemical, read-out: hTREX1 IC50
# T1 construct: N-terminally His-Tev tagged full length human TREX1; made in house; host or cells: E. coli
# T1 sequence (Q9NSU2 1-314): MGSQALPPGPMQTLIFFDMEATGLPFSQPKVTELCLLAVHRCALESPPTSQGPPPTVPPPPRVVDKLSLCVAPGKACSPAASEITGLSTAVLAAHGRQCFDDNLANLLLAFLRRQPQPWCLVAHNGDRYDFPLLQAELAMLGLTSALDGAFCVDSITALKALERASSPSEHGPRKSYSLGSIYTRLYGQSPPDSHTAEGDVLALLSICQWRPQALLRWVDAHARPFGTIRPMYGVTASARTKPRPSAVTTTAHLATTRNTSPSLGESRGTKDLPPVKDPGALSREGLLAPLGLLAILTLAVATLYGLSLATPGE
# Experimental: (§1) Degradation of the dsDNA liberates free fluorophore to produce a fluorescent signal. Specifically, 7.5 μL of N-terminally His-Tev tagged full length human TREX1 (expressed in E. coli and purified in house) in reaction buffer (50 mM Tris, 150 mM NaCl, 2 mM DTT, 0.1 mg/mL BSA, 0.01% (w/v) Tween-20, 5 mM MgCl2, pH 7.4) was added to a 384-well Black ProxiPlate Plus (PerkinElmer) which already contained compound (150 nL) at varying concentrations as a 10 point dose-response in DMSO. The plate was incubated at 25° C. for 4 hours. Reactions were initiated by adding 7.5 μL of dsDNA substrate (Strand A: 5′ TEX615/GCT AGG CAG 3′; Strand B: 5′ CTG CCT AGC/IAbRQSp (Integrated DNA Technologies)) in reaction buffer. Final concentrations were 4 pM TREX1, 60 nM dsDNA substrate in reaction buffer with 1.0% DMSO (v/v). After 18 hours at 25° C., reactions were quenched by the addition of 2 μL of 500 mM EDTA.
# [2] = biological target: T2, full length mouse TREX1 (Mus musculus, UniProt Q91XB0); experiment: mTREX1 Biochemical Assay (fluorescence, dsDNA substrate degradation); conditions: biochemical, read-out: mTREX1 IC50
# T2 construct: N-terminally His-Tev tagged full length mouse TREX1; made in house; host or cells: E. coli
# T2 sequence (Q91XB0 1-314): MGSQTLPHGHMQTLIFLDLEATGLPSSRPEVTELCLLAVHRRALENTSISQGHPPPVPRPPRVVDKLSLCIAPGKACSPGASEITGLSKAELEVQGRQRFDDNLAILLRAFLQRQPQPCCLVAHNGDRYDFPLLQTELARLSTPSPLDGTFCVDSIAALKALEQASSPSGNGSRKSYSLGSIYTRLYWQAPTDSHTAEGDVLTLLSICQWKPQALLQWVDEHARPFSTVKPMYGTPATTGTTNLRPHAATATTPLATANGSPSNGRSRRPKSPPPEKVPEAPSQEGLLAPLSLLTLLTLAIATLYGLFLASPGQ
# Experimental: as §1, with “length mouse” for “length human”, “were 6” for “were 4”
IC50 [1] [nM],IC50 [2] [nM],Compound
> 10,> 10,"CC(c1nc(C(=O)Nc2cnoc2)c(O)c(=O)n1C)C(c1cnn(CCN2CCN(C)CC2)c1)c1ccccc1C#N (single isomer, unassigned) [Example 32 D2E2]"
< 1,1 to 10,"CCn1cc(C(c2cc(F)c(F)cc2Cl)C(C)c2nc(C(=O)Nc3cnoc3)c(O)c(=O)n2C)cn1 (single isomer, unassigned) [Example 72 D1E1]"
> 10,> 10,"Cc1nn(C)cc1C(c1cc(F)ccc1C#N)C(c1nc(C(=O)Nc2cnoc2)c(O)c(=O)n1C)C(F)(F)F (single isomer, unassigned) [Example 42 D2E2]"
> 10,> 10,"CC(c1nc(C(=O)Nc2cnoc2)c(O)c(=O)n1C)C(c1cnn(C(F)F)c1)c1ccccc1C#N (single isomer, unassigned) [Example 38 D2E1]"
> 10,> 10,"CCn1cc(C(c2cc(F)c(F)cc2Cl)C(C)c2nc(C(=O)Nc3cnoc3)c(O)c(=O)n2C)cn1 (single isomer, unassigned) [Example 72 D2E1]"
> 10,> 10,"CC(c1nc(C(=O)Nc2cnoc2)c(O)c(=O)n1C)C(c1cnn(C)c1)c1ccc(F)cc1C#N (single isomer, unassigned) [Example 15 D1E2]"
> 10,> 10,"CC(c1nc(C(=O)Nc2cnoc2)c(O)c(=O)n1C)C(c1cnn(CCN(C)C)c1)c1ccccc1C#N (single isomer, unassigned) [Example 33 D1E2]"
> 10,> 10,"CC(c1nc(C(=O)Nc2cnoc2)c(O)c(=O)n1C)C(c1ccccc1C#N)c1c(C#N)cnn1C (single isomer, unassigned) [Example 52 D2E2]"
> 10,> 10,"CC(c1nc(C(=O)Nc2cnoc2)c(O)c(=O)n1C)C(c1ncn(C)n1)c1ccccc1C#N (single isomer, unassigned) [Example 51 D2E1]"
> 10,> 10,"CC(c1nc(C(=O)Nc2cnoc2)c(O)c(=O)n1C)C(c1cnn(C)c1)c1cccnc1C#N (single isomer, unassigned) [Example 7 D1E2]"
> 10,> 10,"CC(c1nc(C(=O)Nc2cnoc2)c(O)c(=O)n1C)C(c1cnn(C)c1)c1ccc(Cl)cc1C#N (single isomer, unassigned) [Example 27 D2E2]"
> 10,> 10,"CC(c1nc(C(=O)Nc2cnoc2)c(O)c(=O)n1C)C(c1cnn(CC2CC2)c1)c1ccccc1C#N (single isomer, unassigned) [Example 23 D1E1]"
> 10,> 10,"CC(c1nc(C(=O)Nc2cnoc2)c(O)c(=O)n1C)C(c1cnn(CCN2CCNCC2)c1)c1ccccc1C#N (single isomer, unassigned) [Example 31 D2E1]"
> 10,> 10,"CC(c1nc(C(=O)Nc2cnoc2)c(O)c(=O)n1C)C(c1cnn(C)c1)c1cc(F)c(F)cc1C#N (single isomer, unassigned) [Example 25 D2E1]"
> 10,> 10,"CC(c1nc(C(=O)Nc2cnoc2)c(O)c(=O)n1C)C(c1cnn(C2COC2)c1)c1ccccc1C#N (single isomer, unassigned) [Example 106 D2E2]"
> 10,> 10,"Cc1nn(C)cc1C(c1ccccc1C#N)C(C)c1nc(C(=O)Nc2cnoc2)c(O)c(=O)n1C (single isomer, unassigned) [Example 3 D2E1]"
> 10,> 10,"CCn1cc(C(c2ccc(F)cc2C#N)C(C)c2nc(C(=O)Nc3cnoc3)c(O)c(=O)n2C)cn1 (single isomer, unassigned) [Example 16 D2E1]"
> 10,> 10,"Cc1nn(C)cc1C(c1ccc(F)cc1C#N)C(C)c1nc(C(=O)Nc2cnoc2)c(O)c(=O)n1C (single isomer, unassigned) [Example 56 D2E2]"
> 10,> 10,"CC(c1nc(C(=O)Nc2cnoc2)c(O)c(=O)n1C)C(c1cn[nH]c1)c1ccccc1C#N (single isomer, unassigned) [Example 12 D2E2]"
